2 molecules from patent US5399566A, “Pyridine derivatives having angiotensin II antagonism” (Meiji Seika Kabushiki Kaisha, priority 1990, dated 1995) can be followed below.

The test system of series [1] is electric shock induced amnesia mice. The series can be described thus: Cognitive enhancing effect, step through passive avoidance in electric shock induced amnesia mice. The class given is in vivo, ddY strain male mice. The following applies: oral, 10 μg/kg. As for the experimental part: In order to examine the influence of the compounds on the learning and memory facilitating, an amnesia model with use of electric shock in a step through type passive avoidance box (PA-M5 model; OBARA IKA-SANGYOSHA) in accordance with the method described by C. Giurgea et al. (Progressive of Neuropsychopharmacology, 1, 235-247 (1977)) was used.
The subject compounds were orally administered at a dose of 1 ng/kg -1 mg/kg in the form of a homogeneous suspension in a 0.5% aqueous carboxymethylcellulose solution to ddY strain male mice (4-5 weeks) 1 hour before acquisition-trial and 1 hour before retrievaltrial. The animal was first placed in the light chamber, and the door at the boundary between the light and dark chamber was opened after 30 seconds. At the same time as the animal stepped into the dark chamber, electric footshock (40 V) was delivered to the floor of the dark chamber so that the animal acquired avoidance response (acquisition-trial). […] That is, the animal was placed again in the light chamber, the door was opened after 30 seconds, and the latency of the animal into the dark -chamber was measured for up to 600 seconds, so that the time was compared with that of the solvent administered group in which amnesia had been caused by electric shock.

The next series has as its system Renal hypertensive rats. The series can be described thus: Hypotensive effect in renal hypertensive rats (RHR). Type of series: in vivo, Spraque-Dawley (SD) male rats. The following applies: oral, 3 mg/kg. The method, then:
Renal hypertensive rats, a model of high-renin hypertension, were prepared according to the method of J. L. Cangiano et al. (Journal of Pharmacology and Experimental Therapeutics, 208, 310-313, 1979). That is, the experiment was conducted with Spraque-Dawley (SD) male rats (250-300 g), which were ligated the left renal artery with a thread under the anesthetic condition, so that the systolic blood pressure was increased more than 150 mmHg on 1 week after the operation. The subject compounds were orally administered in the form of a homogeneous suspension in a 0.5% aqueous carboxymethylcellulose solution, and a mean blood pressure was measured in the same manner as in the paragraph 1-2. Heart rate was counted with a cardiotachmeter triggered by the arterial pulse.

In series [2] the test system is hypertensive action by angiotensin II. The series can be described thus: Inhibition on the hypertensive action by an exogenous angiotensin II in conscious rats. Type of series: in vivo, Spraque-Dawley (SD) male rats. The conditions noted are these: oral; for ED50: Rattus norvegicus, within 6 hours after administration, read-out: ED50 (dose required for inhibiting the hypertensive action by angiotensin II to the extent of 50%); for inhibitory effect on the hypertensive action by angiotensin II: dose of 1 mg/kg or less, angiotensin II 0.1 μg/kg i.v. The source says:
(§1) The angiotensin II antagonistic activities in vitro were compared on the basis of the intensities (pA2 value) of antagonizing the contraction response to angiotensin II at the isolated thoracic aorta of rabbit. The in vivo activities were examined by comparing the inhibitory effects on the hypertensive action by an exogenous angiotensin II in a non-anesthetized rat and the hypotensive effects of a renal hypertensive rat or a spontaneously hypertensive rat.
Anesthetized Spraque-Dawley (SD) male rats were cannulated into a femoral artery and a femoral vein and used for the experiment at the time when it has elapsed at least 24 hours after the operation. The hypertensive action caused by angiotensin II (0.1 μg/kg) which has been administered through the vein catheter was measured under conscious and unrestrained condition before and after administration of the compound. The artery catheter was connected to a pressure transducer to measure a mean blood pressure, and the subject compounds were orally administered in the form of a homogeneous suspension in a 0.5% aqueous carboxymethyl cellulose solution.
The intensities of the inhibitory effects within 6 hours after administration of the compound were examined on the basis of the dose of the compound required for inhibiting the hypertensive action by angiotensin II to the extent of 50% (ED50 values).

The target in series [3] is T1, contraction response to angiotensin II at the isolated thoracic aorta of rabbit (Oryctolagus cuniculus, UniProt P34976).
T1 construct: A strip of thoracic aorta of a male rabbit (2.5-3.0 kg) was prepared by the usual method; from tissue; host or cells: rabbit thoracic aorta strip
T1 sequence (P34976 1-359): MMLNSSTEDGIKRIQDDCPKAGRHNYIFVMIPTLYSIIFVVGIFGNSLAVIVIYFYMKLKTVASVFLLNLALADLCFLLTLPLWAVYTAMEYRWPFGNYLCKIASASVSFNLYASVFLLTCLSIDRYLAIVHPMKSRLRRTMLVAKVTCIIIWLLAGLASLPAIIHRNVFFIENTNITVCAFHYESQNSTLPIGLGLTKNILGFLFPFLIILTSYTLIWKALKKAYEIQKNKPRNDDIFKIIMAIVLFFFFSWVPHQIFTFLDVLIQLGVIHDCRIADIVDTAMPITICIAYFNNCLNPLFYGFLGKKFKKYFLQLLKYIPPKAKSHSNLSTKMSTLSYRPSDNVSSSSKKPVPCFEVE
Description: In vitro angiotensin II antagonism, isolated rabbit thoracic aorta (Schild pA2). The conditions noted are these: Schild plot. Type of series: cell-based.
Description: as §1
A strip of thoracic aorta of a male rabbit (2.5-3.0 kg) was prepared by the usual method and suspended in an organ bath containing well oxygenated Krebs-Henseleit solution at 37° C. The pA2 value was calculated according to the method described by H. O. Schild (British Journal of Pharmacology and Chemotherapeutics, 2, 189-206, 1947). A strip treated with 3-5 doses of a subject compound in an amount of 10^-6 M-10^-10 M and a strip treated with no drug were employed for obtaining a dose-response curve by angiotensin II. Log (dose ratio--1) was calculated from the shift of the dose-response curve of the subject compound, and pA2 value was obtained from the Schild plottings.

The subject of series [4] is spontaneously hypertensive rats. The series can be described thus: Hypotensive effect in spontaneously hypertensive rats (SHR). Type of series: in vivo, male spontaneously hypertensive rats. The following applies: oral, 10 mg/kg. The method, then:
The subject compounds were administered orally in the same manner as in the paragraph 1-3 to male spontaneously hypertensive rats (28 weeks old, Charles-River Co.), which were measured mean blood pressure and heart rate.

For another series, the system named is ddY male mice. The series can be described thus: Antianxiety effect, light and dark box. Type of series: in vivo. The following applies: oral, 0.1 μg/kg, 1 hour. The method, then: (§2) The subject compounds were examined on their antianxiety effect with the light and dark box according to the method described by B. Costall et al. (Pharmacology Biochemistry and Behavior, 32, 777-785, 1989) and with the elevated plus maze by S. Pell et al. (Journal of Neuroscience Methods, 14, 149-167, 1985).
The subject compounds were administered orally to ddY male mice (4-5 weeks old) at a dose of 0.1-1000 μg/kg. After 1 hour they were placed in the light chamber of the light and dark box, and after 10 seconds the door at the boundary between the light chamber and the dark chamber was opened. The behavior of the animals in the light and dark box under a sound-proof condition for four minutes was observed and examined by comparing the measurements of latency to the dark chamber, shuttling between the light and dark chambers and duration in the light chamber with those in the group to which only a solvent was administered. The subject compounds were orally administered in the form of a homogeneous suspension or solution in a 0.5% aqueous carboxymethyl cellulose solution.

A short description of series [5]: Toxicity test, oral, mice. The conditions noted are these: mouse, in vivo, ddY male mice 5 weeks old. As for the experimental part:
Several compounds of the present invention represented by the general formula (I) were administered orally by compulsion to ddY male mice of 5 weeks old (average weight, ca. 20 g).

In the next series the test system is Fisher 344 male rats. Description: Antianxiety effect, elevated plus maze. Type of series: in vivo. The following applies: oral, 1 μg/kg, 1 hour. As for the experimental part: as §2
To Fisher 344 male rats (5-6 weeks old), the subject compounds were orally administered at a dose of 1-100 μg/kg in the form of a homogeneous suspension or solution in a 0.5% aqueous carboxymethyl cellulose solution. Among the four arms of the elevated plus maze (a device in which four arms are intersected crosswise and connected together at a height of 50 cm from the floor), the two arms with side walls are referred to as closed arms and the two arms without side walls are referred to as open arms. […] As the indices of the behavior, the latency until stepped out from the arm first placed to the other arm and the durations in the respective arms were measured, and the other behaviors were recorded. Diazepam was used as a control agent, and the drug administered group and the solvent administered group (group to which a 0.5% aqueous carboxymethyl cellulose solution was administered)were compared for the behaviors.

For the next series, the system named is SD female rats. The conditions noted are these: rat, in vivo, po, 100 mg/kg.

As to `COc1c(OCc2ccc(-c3ccccc3-c3nnn[nH]3)cc2)cc(C)nc1C` [Example 11, 3-methoxy-2,6-dimethyl-4-[2'-(tetrazol-5-yl)biphenyl-4-yl]methoxypyridine], in [1], the “latency into the dark chamber (passive avoidance response)” value was “significant prolongation of the latency into the dark chamber”. Further, in the series with Renal hypertensive rats, the “depression of blood pressure” value is recorded as 20-26% and the hypotensive effect entry is recorded as “significant long-lasting hypotensive effect”. Besides, in [2], the ED50 turned out to be 0.54 mg/kg and the “inhibitory effect on the hypertensive action by angiotensin II” value is given as “significant inhibitory effects”. For the same molecule, the Kb in [3] is 6.31 nM. For the same molecule, in series [4], the “depression of blood pressure” value is “approximately 20%” and the hypotensive effect result is on record as “significant hypotensive effect”. Moreover, in the series on ddY male mice, the “duration in the light chamber” value is on record as “increased” and the “latency to the dark chamber” value is reported as “increased”. The LD50 in [5] is over 1000 mg/kg.

On to `CCOC(=O)c1c(OCc2ccc(-c3ccccc3-c3nnn[nH]3)cc2)cc(C)nc1CC` [Example 45, 3-ethoxycarbonyl-2-ethyl-6-methyl-4-[2'-(tetrazol-5-yl)-biphenyl-4-yl]methoxypyridine], for which, in the series with Renal hypertensive rats, the “depression of blood pressure” value was 20-26% and the hypotensive effect entry is reported as “significant long-lasting hypotensive effect”. Also, in series [2], the ED50 amounted to 0.52 mg/kg and the “inhibitory effect on the hypertensive action by angiotensin II” value is on record as “significant inhibitory effects”. Besides, in the series on Fisher 344 male rats, the “duration out of the closed arm” value is listed as “increasing tendency” and the transitions entry is given as “significant increase”. The same molecule had a Kb in series [3] of 6.76 nM. The symptom of toxicity entry in the series on SD female rats was “no symptom of toxicity was observed”. Besides, in [4], the “depression of blood pressure” value is listed as “approximately 20%” and the hypotensive effect result is given as “significant hypotensive effect”. The LD50 in [5] is over 1000 mg/kg.
